In patent US6555571B2, “3-methyl -chromane or thiochromane derivatives” (Chugai Seiyaku Kabushiki Kaisha, priority 1999, dated 2003):

test system: increase in uterus weight by stimulus with estradiol; assay: Anti-estrogenic activity via oral administration (inhibition of estradiol-stimulated increase in uterus weight in ovariectomized mice); format: in vivo; details: ovariectomized ICR mice, 17β-estradiol-benzoate 0.1 μg/day s.c. for 3 days, test compound 10 mg/kg p.o., once a day, uterus weighed 24 hours after last administration
Description: Oral anti-estrogenic activity in vivo of the test compound was determined according to the method described hereinafter. […] In this experiment, the test compounds and the control compound were suspended in 5% arabic gum solution and orally administered for 3 days, once a day. After 24 hours from the last administration, the test animal was sacrificed and uterus was removed and weighed.

Compared with C[C@]1(c2ccc(O)cc2)CSc2cc(O)ccc2[C@H]1CCCCCCCCC(CCCCCCC(F)(F)C(F)(F)F)C(=O)O (stereo partly drawn) [Example 1, (3′RS,4′RS)-10-[7-hydroxy-3-(4-hydroxyphenyl)-3-methylthiochroman-4-yl]-2-(7,7,8,8,8-pentafluorooctyl)decanoic acid], C[C@]1(c2ccc(O)cc2)CSc2cc(O)ccc2[C@H]1CCCCCCCCCC(CCCCCCC(F)(F)C(F)(F)F)C(=O)O (stereo partly drawn) [Example 2, (3′RS,4′RS)-11-[7-hydroxy-3-(4-hydroxyphenyl)-3-methylthiochroman-4-yl]-2-(7,7,8,8,8-pentafluorooctyl)undecanoic acid] is lower in “Inhibition (%) of the increase in uterus weight by estradiol” value (shortened to “Inhibition (%) of the increase”): 78.9% for the first, 62.0% for the second.

Compared with C[C@]1(c2ccc(O)cc2)COc2cc(O)ccc2[C@H]1CCCCCCCCCC(CCCCCCC(F)(F)C(F)(F)F)C(=O)O (stereo partly drawn) [Example 3, (3′RS,4′RS)-11-[7-hydroxy-3-(4-hydroxyphenyl)-3-methylchroman-4-yl]-2-(7,7,8,8,8-pentafluorooctyl)undecanoic acid], C[C@]1(c2ccc(O)cc2)COc2cc(O)ccc2[C@H]1CCCCCCCCC(CCCCCCC(F)(F)C(F)(F)F)C(=O)O (stereo partly drawn) [Example 4, (3′RS,4′RS)-10-[7-hydroxy-3-(4-hydroxyphenyl)-3-methylchroman-4-yl]-2-(7,7,8,8,8-pentafluorooctyl)decanoic acid] is lower in “Inhibition (%) of the increase” value: 85.1% for the first, 71.4% for the second.

C[C@]1(c2ccc(O)cc2)CCc2cc(O)ccc2C1CCCCCCCCC[S+]([O-])CCCC(F)(F)C(F)(F)F (some centres unmarked) [ZM189154, reference compound] was tested, and the “Inhibition (%) of the increase” value was 41.7%.
